Measurements from patent US20230346678A1, “TOPICAL COMPOSITIONS CONTAINING VITAMIN C” (priority 2022, published 2023).

Assay: Oxygen radical absorbance capacity (ORAC) assay
Type: biochemical
Description: The combined anti-oxidant effects of combinations of ascorbic acid with various other known anti-oxidants was tested using the oxygen radical absorbance capacity (ORAC) assay according to the method described by Ou B, Hampsch Woodill M, Prior R. L. Development and validation of an improved oxygen radical absorbance capacity assay using fluorescein as the fluorescent probe. J Agric Food Chem. 2001, 49:4619 (using a slightly different ex/em wavelength readout and a narrower range of Trolox standards). This assay measures the ability of anti-oxidant “chain breakers” to inhibit the decline in disodium fluorescein (FL) fluorescence that is induced by the peroxyl radical generator, 2′,2′-Azobis (2-amidinopropane) dihydrochloride (AAPH). Distilled water was used as the negative control. Trolox (6-hydroxy-2,5,7,8-tetramethylchroman-2-carboxylic acid, a water-soluble analog of vitamin E sold by Hoffman-LaRoche having antioxidant properties) was used as the positive control.
The final ORAC values were calculated from the regression equation of net areas under the FL decay curve using a formula where Area Under the Curve (AUC)=1+(Point 1+Point 2+Point 3+ . . . +Point 15)/Point 1. The Trolox standards were then plotted as micromoles over AUC. The samples were solved using their AUC yielding the values in micromole (μmol) Trolox equivalent (TE) per ml. Applied BioSystems Cytofluor 4000 fluorometer & software was used for quantification. ORAC values of the test materials were expressed in μmoles TE/ml (TE=Trolox Equivalents).
All ingredients were stored at room temperature and then diluted with distilled water into aqueous stock solutions for testing. Further dilutions were made in distilled water within 24 h from testing.

[1] = second test run (second Table 3)

Work on Cc1c(C)c2c(c(C)c1O)CCC(C)(C(=O)O)O2 (centres unmarked) [Trolox, 6-hydroxy-2,5,7,8-tetramethylchroman-2-carboxylic acid] yielded an ORAC (first test run, positive control) of 3940 µmol/g and an ORAC (second test run, positive control) of 4368 µmol/g.
Compound O=C(O[C@@H]1Cc2c(O)cc(O)cc2O[C@@H]1c1cc(O)c(O)c(O)c1)c1cc(O)c(O)c(O)c1 [0.1% EGCG, epigallocatechin gallate] has an ORAC (first test run (first Table 3)) of 7 μmoles TE/ml.
In the case of Cn1c(=O)c2c(ncn2C)n(C)c1=O [2% caffeine, caffeine], the ORAC (first test run (first Table 3)) is reported as 10 μmoles TE/ml and the ORAC [1] is reported as 0 μmoles TE/ml.
For O=C1O[C@H]([C@@H](O)CO)C([O-])=C1OP(=O)([O-])[O-].[Na+].[Na+].[Na+] [0.5% sodium ascorbyl phosphate, sodium ascorbyl phosphate], the ORAC (first test run (first Table 3)) was 10 μmoles TE/ml.
Work on CCOC1=C(O)C(=O)O[C@@H]1[C@@H](O)CO [0.5% Ethyl L-Ascorbic Acid, Ethyl L-Ascorbic Acid] yielded an ORAC (first test run (first Table 3)) of 13 μmoles TE/ml and an ORAC [1] of 7 μmoles TE/ml.
For O=C1O[C@H]([C@@H](O)CO)C(O)=C1O [10% ascorbic acid, ascorbic acid], the ORAC (first test run (first Table 3)) was 751 μmoles TE/ml and the ORAC [1] was 838 μmoles TE/ml.
For COc1cc(CCC(=O)CC(=O)CCc2ccc(O)c(OC)c2)ccc1O [0.5% Tetrahydrodiferuloyl-methane, Tetrahydrodiferuloyl-methane], the ORAC (first test run (first Table 3)) was 4 μmoles TE/ml.
